# Entries after “also recorded” stand apart in the source; their conditions may differ.
# Columns and labels:
# MAPT V337M iNs = experiment: Survival of MAPT FTD iNs; assay type: cell-based, human; details: DMSO or apilimod (3 uM in FIG. 28)
# Method: (§1) (A) Survival of C9ORF72 iNs with DMSO or apilimod. Log-rank test, 100 iNs per group. […] Log-rank test, 100 iNs per group. […] Mean+/−s.e.m. Kruskal-Wallis Test.
# (§2) (A) Survival of control or SOD1 A4V iMNs with DMSO or 3 uM apilimod. (B) Survival of TDP-43 G298S iMNs with DMSO or 3 uM apilimod. (C) Survival of MAPT V337M or isogenic control iNs.
# (§3) Mutations in MAPT cause FTD with tau aggregates. To determine if iNs from FTD patients display neurodegenerative phenotypes, an established method to generate cortical neurons from iPSCs by forced expression of NGN2 was used. 3 FTD patient iPSC lines harboring a MAPTV337M mutation and their CRISPR-edited isogenic controls from a published cell bank were utilized. Neurons from MAPT-mutant iPSCs display increased phosphorylated and oligomeric tau, similar to post-mortem patient tissue (FIG. 18A). […] Thus, MAPT iNs display key features of FTD with tau pathology.
# PIKFYVE inhibition rescues the survival of TARDBP ALS, SOD1 ALS, and MAPT FTD patient neurons. Since the accumulation of misfolded proteins is a common disease mechanism in all forms of ALS, FTD, and Alzheimer's disease, it was reasoned that inducing secretory autophagy might rescue neurodegeneration in diverse patients. iMNs were generated from ALS patients harboring mutations in TARDBP or SOD1 as well as NGN2-induced neurons (iNs) from MAPT^V337M FTD. […]
# C9-ALS/FTD iMNs = experiment: Exosome secretion from iMNs; assay type: cell-based, human
# From the text: (A) Western blot of TSG101, TDP-43, and Neurofilament heavy chain levels in the exosome fraction secreted from control or C9-ALS/FTD iMNs upon apilimod treatment. […] Kruskal-Wallis test for B, C. N=3 biological replicates per condition, one line per genotype. (D) Number of poly(GR)-GFP+ exosomes secreted from iMNs expressing exogenous poly(GR)-GFP upon DMSO or apilimod treatment. N=4 biological replicates. Exosomes were labeled with CFSE-red dye to enable detection by FACS. Unpaired t-test.
# Blocking PIKFYVE activity induces secretory autophagy. […] Thus, secretory autophagy maintains proteostasis and prevents neuronal death in TDP-43 mouse models. PIKFYVE inhibition blocks autophagosome-lysosome fusion by […] their ratio in endosomal, lysosomal and autophagosomal membranes. One might expect this to be detrimental to ALS iMNs, which can degenerate due to misfolded protein accumulation. However, inhibition of autophagosome-lysosome fusion using PIKFYVE inhibition or bafilomycin can activate secretory autophagy to jettison misfolded proteins from cells. […] To test this hypothesis, exosomal release in human iMNs upon PIKFYVE inhibition was examined. […] Thus, PIKFYVE inhibition induces the secretion of TDP-43 and C9ORF72 DPRs from iMNs.
# Determining if PIKFYVE suppression rescues neurodegeneration through secretory autophagy. […] ASOs were designed targeting […]. It was confirmed that the ASOs suppressed RAB27A expression in iMNs.
# [1] = Apilimod pharmacokinetics (CSF concentration after oral dosing); assay type: in vivo
# From the text: All doses rescue iMN survival.
# Testing the safety of ASO-mediated suppression of PIKFYVE as a therapeutic strategy. […] While it may be possible to generate a suitable PIKFYVE inhibitor using medicinal chemistry, this is an expensive and time-consuming endeavor. In contrast to small molecules, ASOs provide a facile approach to targeting the CNS because they can be injected directly into the spinal cord, achieve sustained target engagement throughout the CNS, and are less likely to cause peripheral toxicity. Thus, ASO-mediated PIKFYVE suppression was tested as a therapeutic approach for ALS, FTD, and Alzheimer's disease.
# TDP-43 G298S iMNs = experiment: Survival of TARDBP ALS iMNs; assay type: cell-based, human; details: neurotrophic factor withdrawal; DMSO or 3 uM apilimod
# Method: as §2
# (§4) PIKFYVE inhibition rescues the survival of TARDBP ALS, SOD1 ALS, and MAPT FTD patient neurons. Since the accumulation of misfolded proteins is a common disease mechanism in all forms of ALS, FTD, and Alzheimer's disease, it was reasoned that inducing secretory autophagy might rescue neurodegeneration in diverse patients. iMNs were generated from ALS patients harboring mutations in TARDBP or SOD1 as well as NGN2-induced neurons (iNs) from MAPT^V337M FTD. […] 2 additional isogenic pairs of iPSC lines from MAPT FTD patients, 2 additional TARDBP ALS iPSC lines, and 2 additional SOD1 ALS iPSC lines were all obtained.
# C9ORF72 FTD iNs = experiment: Survival of C9ORF72 FTD iNs; assay type: cell-based, human; details: DMSO or apilimod; scrambled or PIKFYVE ASOs
# From the text: as §1
# (A, B) Survival of C9-FTD iNs treated with DMSO and Apilimod (A) or Apilimod+GW4869 (exocytosis blocker) (B). Log-rank test. 100 iNs per group. iNs quantified from 3 independent replicates per group.
# as §3
# Thus, C9ORF72 iNs provide a robust model of FTD.
# PIKFYVE inhibition rescues neurodegeneration through secretory autophagy.
# C9ORF72 DPRs = experiment: DPR levels in C9ORF72 iNs; assay type: cell-based, human
# From the text: 2000 approved drugs and 1800 target-annotated tool compounds were screened on C9ORF72 FTD iNs.
# Optineurin (OPTN) = experiment: Optineurin in CSF of mice after intracerebroventricular apilimod; assay type: in vivo; details: intracerebroventricular injection into adult mice; mass spectrometry; apilimod vs vehicle
# Method: (A) Mass spectrometry analysis of Optineurin (OPTN) levels in the cerebrospinal fluide (CSF) of mice 2 hours after direct intracerebroventral injection of a vehicle control or apilimod. n=3 mice per group. The ratio of Optineurin in the CSF of apilimod:vehicle-injected mice is shown. (B) Poly(GR)+ DPR punctae in wild-type or C9ORF72 mice treated with intracerebroventricular injection of apilimod for 48 hours. Mean+/−s.e.m. Data points are individual neurons taken across 3 mice per group. One-way ANOVA. […] Unpaired t-test. (D) Pikfyve qRT-PCR of whole brain. n=3 mice per group at postnatal day 7. Unpaired t-test. (E) Gait impairment scoring in wild-type (WT) and TDP-43 homozygous mice treated with a negative control (NC) ASO or Pikfyve ASO at postnatal day 1. Mean+/−s.e.m. Unpaired t-test at each time point between the negative control and Pikfyve ASO conditions for TDP-43 mice. A score of 0 indicates no phenotype and 4 indicates the most severe phenotype. (F) Vehicle or GW4869 were delivered by intraperitoneal injection every 48 h starting from day 6 in negative control and Pikfyve ASO-treated mice. Mean+/−s.e.m. One-way ANOVA at each time point between the four conditions. *p<0.05, **p<0.01, ***p<0.001, ****p<0.0001.
# PIKFYVE inhibition rescues neurodegeneration in vivo. […]
# SOD1 A4V iMNs = experiment: Survival of SOD1 ALS iMNs; assay type: cell-based, human; details: neurotrophic factor withdrawal; DMSO or 3 uM apilimod
# Method: as §2, §4
smiles,measurement,setting,value
Cc1cccc(/C=N/Nc2cc(N3CCOCC3)nc(OCCc3ccccn3)n2)c1 [apilimod],survival of MAPT FTD iNs,MAPT V337M iNs,potently rescued; also recorded: rescued the survival
same,poly(GR)-GFP+ exosomes released from iMNs,"C9-ALS/FTD iMNs; iMNs expressing poly(GR)50-GFP, FACS",released significantly more poly(GR)-GFP+ exosomes
same,TDP-43 in exosomes from C9ORF72 ALS iMNs,C9-ALS/FTD iMNs; western blot of exosome fraction,contained high levels of TDP-43
same,release of TSG101+ exosomes from iMNs,C9-ALS/FTD iMNs; western blotting,significantly increased the release of TSG101+ exosomes
same,metabolic stability in vivo,[1]; in vivo,poor metabolic stability in vivo
same,brain exposure,"[1]; oral dosing at 100 mg/kg, CSF concentration",does not achieve sufficient brain exposure
same,survival of TARDBP ALS iMNs,TDP-43 G298S iMNs,rescued the survival
same,survival of C9ORF72 iNs,C9ORF72 FTD iNs,also rescued C9ORF72
same,DPR levels in C9ORF72 iNs,C9ORF72 DPRs,lowered DPR levels
same,increase in CSF OPTN levels,Optineurin (OPTN),18 fold
same,survival of SOD1 ALS iMNs,SOD1 A4V iMNs,rescued the survival
